Reference: PMC10219169, “Thiopurines Analogues with Additional Ring: Synthesis, Spectroscopic Properties, and Anticancer Potency” (International Journal of Molecular Sciences, 2023)
Where two headings read alike, the source gives them in different places.

How the values were obtained:
[1] = n-octanol/phosphate buffer pH 7.4 partition coefficient (lipophilicity determination); format: physicochemical; conditions: 1-octanol/phosphate buffer pH 7.4, read-out: Experimental log Po/w (pH 7.4)
Experimental: The key parameter in drug design and one of the most important properties for all the pharmacokinetic rules is the octanol/water partition coefficient, log Po/w. It is defined as the partition coefficient ratio of a compound between the hydrophobic and hydrophilic phases and corresponds to lipophilicity, which describes drug interactions with membranes and the possibility of their transport across the membrane into the cell. The values of log Po/w were determined experimentally for all the tested compounds and compared with the values theoretically estimated on the SwissADME [23] webserver.
The partition coefficients of the tested compounds were determined for n-octanol/phosphate buffer pH 7.4 at 25 °C and 37 °C. The initial concentrations of the compounds (1.0 × 10^−5 M and 2.0 × 10^−5 M) were measured spectrophotometrically, according to the Beer–Lambert law. The absorbances were recorded at λmax of the appropriate compound against a suitable phosphate buffer blank. A quantity of 1 mL of the solution of the tested compound in the phosphate buffer at pH 7.4 and 1 mL of n-octanol were placed in 2 mL Eppendorf tubes. The samples were shaken manually (2 min), vortexed (5 min), and incubated for 5 h at 25 °C or 37 °C. Then, the tubes were centrifuged (2 min, 10,000 rpm). Both layers were carefully separated, and the absorbances were measured for the aqueous layers at a suitable λmax against the blank of the phosphate buffer at a suitable pH. The given logPo/w values are the mean of three independent experiments (one experiment: 3 samples for 2 concentrations of each compound).

HeLa cells = assay: CellTiter-Glo cell viability assay (24 h), HeLa; format: cell-based, human; conditions: for IC50: CellTiter-Glo; for reduction of HeLa cell viability: c = 80 μM; for selectivity index (SI): SI = IC50 normal cell (NIH/3T3) / IC50 cancerous cell (HeLa)
Experimental: (§1) The compounds in this work were tested for their in vitro inhibitory effect on the viability of the HeLa (cancerous) cell line using the CellTiter-Glo® 2.0 cell viability assay (24 h). In addition, the mouse fibroblast NIH/3T3 cell line was used to assess the effects of the compounds on healthy normal cells. […] The 6TG was used as a standard in all tests conducted. The graph of percentage cell viability (y axis) against concentrations of the tested compounds (x axis) and concentration-viability curves with IC50 values from dose-response studies are presented in Figure 4 and Figure 5, respectively.
(§2) The cytotoxicity of the synthesized compounds was tested using cell lines of cervical cancer (HeLa) and mouse fibroblasts (NIH/3T3). Both cell lines were cultured in Dulbecco′s Modified Eagle′s medium (31053, Sigma-Aldrich-Gibco, Thermo Fisher Scientific, Waltham, MA, USA) supplemented with 10% fetal bovine serum (Biowest, Nuaillé, France), 1% Glutamax (Thermo Fisher Scientific, Waltham, MA, USA), and 1% Antibiotic-Antimycotic (Biowest) under standard culture conditions (95% humidity, 5% CO2, at 37 °C). For the purpose of cytotoxicity assays, cells (from both cell lines) were seeded at a density of ca. 5000 cells/well on a 96-well microplate (white, flat bottom), in 4 replicates. 6-Me-TEGuo, 6-Me-TEGua, TEGuo, TEGua, and 6-Me-TEG were tested for their potential cytotoxicity using the following concentrations: 160 (except 6-Me-TEG), 80, 40, 20, 10, 5, and 2.5 μM. Additionally, 6-thioguanine (6TG) in concentrations of 10, 7.5, 5, 2.5, 1.25, and 0.625 μM was tested. All assays included non-treated cells and cells treated with 10% DMSO as negative and positive controls, respectively. The cells were incubated for 24 h under standard culture conditions. Cytotoxicity was measured as cell viability with the CellTiter-Glo® Luminescent Cell Viability Assay (Promega, Madison, WI, USA) according to the manufacturer’s protocol. The microplate luminescence was measured using an Infinite® 200 PRO plate reader (Tecan, Männedorf, Switzerland). Then, the average luminescence of non-labeled cells was equated to 100%, and the remaining values were proportionally normalized. The IC50 values were calculated from the fitting curves using Origin 2022.

[2] = pKa determination by spectrophotometric method; format: physicochemical; conditions: for fraction existing in ionic form: at physiological pH (7.32–7.42); for pKa: spectrophotometric method, buffer solutions of different pH
Experimental: The synthesized compounds, due to their structure, can be hydrogen donors as well as acceptors. Depending on the pH, they can exist in protonated or deprotonated forms. In order to establish which form of the new tricyclic thiopurine derivatives is favored at neutral pH (the conditions under which the in vitro tests will be carried out), their pKa values were determined by spectrophotometric methods (see Table 1 and the Experimental Section). […] This means that at physiological pH (7.32–7.42), about 6% of TEGuo/TEGua exist in ionic form, while 6-Me-TEGuo/6-Me-TEGua only about 4%.
UV-vis absorption spectra were recorded using a Cary 100 spectrophotometer scanning from 800 to 200 nm with 1 nm increments in 1 cm × 1 cm quartz cells. Emission spectra were taken in 1 cm × 1 cm quartz cells on a JASCO FP–8300 spectrofluorometer (excitation and emission slits 5 nm, scan speed 500 nm min^−1) for solutions with absorbance at the excitation wavelength less than 0.1. The fluorescence quantum yields were determined using 10-methylacridinium cation in water (Φ = 1.0) as a standard. The dissociation constants were determined by the spectrophotometric method: in a first step, buffer solutions of different pH were prepared. The pH of solutions was determined by a Mettler Toledo F20 FiveEasy pH meter equipped with a pH electrode LE438 3 in 1 (Mettler Toledo). In the second step, equal volumes of a substance dissolved in water (10 μL) were added to the buffer solution (3 mL). The spectra were recorded with 1 nm resolution over the range from 220 to 550 nm to obtain different spectra around the maximum λ for each compound studied. The purity of all samples was monitored by an HPLC method. HPLC measurements were performed using an Agilent 1200 Rapid Resolution UHPLC system equipped with a reversed-phase column (Eclipse Plus C18, […], 4.6 × 250 mm). A gradient of acetonitrile in water was used as an eluent. The water was doubly distilled and purified using a Milli-Q system (Millipore, Bedford, MA, USA). The fluorescence lifetime measurements were recorded using a Fluorescence Lifetime Spectrometer (FluoTime 300 from PicoQuant) with a time-correlated single-photon counting detection system equipped with a 378 nm laser as its excitation source. All experiments were carried out in a standard quartz cell (1 cm × 1 cm).

NIH/3T3 cells = assay: CellTiter-Glo cell viability assay (24 h), NIH/3T3; format: cell-based; conditions: Mus musculus, NIH3T3, NIH/3T3, 24 h
Experimental: as §1, §2

[3] = pKa* of singlet excited state from pH-dependent fluorescence emission; format: physicochemical; conditions: determined from emission from the singlet excited state
Experimental: At pH 4.0, as was the case for the absorbance at 352 nm, the intensity and shape of the fluorescence signal were similar to those observed in water solution for all the compounds tested. However, in the case of basic pH, a two-fold increase in the emission intensity and a blueshift of the emission maximum were observed.
UV-vis absorption spectra were recorded using a Cary 100 spectrophotometer scanning from 800 to 200 nm with 1 nm increments in 1 cm × 1 cm quartz cells. Emission spectra were taken in 1 cm × 1 cm quartz cells on a JASCO FP–8300 spectrofluorometer (excitation and emission slits 5 nm, scan speed 500 nm min^−1) for solutions with absorbance at the excitation wavelength less than 0.1. The fluorescence quantum yields were determined using 10-methylacridinium cation in water (Φ = 1.0) as a standard. The dissociation constants were determined by the spectrophotometric method: in a first step, buffer solutions of different pH were prepared. The pH of solutions was determined by a Mettler Toledo F20 FiveEasy pH meter equipped with a pH electrode LE438 3 in 1 (Mettler Toledo). […] The spectra were recorded with 1 nm resolution over the range from 220 to 550 nm to obtain different spectra around the maximum λ for each compound studied. The purity of all samples was monitored by an HPLC method. […]

[4] = n-octanol/phosphate buffer pH 7.4, pH 7.4, 25 °C
[5] = n-octanol/phosphate buffer pH 7.4, pH 7.4, 37 °C

Structure (SMILES)	logP at 5 h [1, 4]	logP at 5 h [1, 5]	fraction existing in ionic form [2]	pKa [2]	IC50 (HeLa cells; HeLa, 24 h) [µM]	IC50 (HeLa cells; Homo sapiens, HeLa, 24 h) [µM]	pKa* (singlet excited state) [3]	effect on HeLa cell viability (HeLa cells; HeLa, concentration range 2.5 μM to 80 μM, 24 h)	reduction of HeLa cell viability (HeLa cells; HeLa, 24 h)	IC50 (NIH/3T3 cells) [µM]	selectivity index (SI) (HeLa cells)
CC(=O)OC[C@H]1O[C@@H](n2cnc3c(=S)n4cc(C)[nH]c4nc32)[C@H](OC(C)=O)[C@@H]1OC(C)=O [6-Me-TEG, 2′,3′,5′-tri-O-acetyl-6-methyl-9-thio-1,N^2-ethenoguanosine]	0.8	0.75						no effect on HeLa cell viability was observed			
Cc1cn2c(=S)c3nc[nH]c3nc2[nH]1 [6-Me-TEGua, 6-methyl-9-thio-1,N^2-ethenoguanine]	0.75	0.7	about 4%	8.8	< 100	78.2			up to 57%	51.6	
Nc1nc2nc[nH]c2c(=S)[nH]1 [6TG, 6-thioguanine, reference compound]											> 1

The next lines start with results.

logP at 5 h [1, 4]	logP at 5 h [1, 5]	fraction existing in ionic form [2]	pKa [2]	IC50 (HeLa cells; HeLa, 24 h) [µM]	IC50 (HeLa cells; Homo sapiens, HeLa, 24 h) [µM]	pKa* (singlet excited state) [3]	Structure (SMILES)	effect on HeLa cell viability (HeLa cells; HeLa, concentration range 2.5 μM to 80 μM, 24 h)	reduction of HeLa cell viability (HeLa cells; HeLa, 24 h)	IC50 (NIH/3T3 cells) [µM]	selectivity index (SI) (HeLa cells)
-0.61	-0.67	about 4%	8.8	< 100	55.8	8.9	Cc1cn2c(=S)c3ncn([C@@H]4O[C@H](CO)[C@@H](O)[C@H]4O)c3nc2[nH]1 [6-Me-TEGuo, 6-methyl-9-thio-1,N^2-ethenoguanosine]		up to 42%	63.8	> 1
0.58	0.52	about 6%	8.6		137		S=c1c2nc[nH]c2nc2[nH]ccn12 [TEGua, 9-thio-1,N^2-ethenoguanine]			97.9	
-0.89	-0.96	about 6%	8.6	< 100	80.2	8.7	OC[C@H]1O[C@@H](n2cnc3c(=S)n4cc[nH]c4nc32)[C@H](O)[C@@H]1O [TEGuo, 9-thio-1,N^2-ethenoguanosine]			83.6	> 1
